Laboratory results as given in patent publication US10987349B2, “Antitumor agent and bromodomain inhibitor” (FUJIFILM Corporation, priority 2016, dated 2021).

Assays:
T-24 = assay: Cell growth test (Cell Titer Blue) T-24; type: cell-based; conditions: Homo sapiens, 72 h, T-24, Bladder cancer, 3 days
Method: (§1) Moreover, the compound of Example 14 was subjected to a cell growth test using various types of cell lines.
(§2) All cell lines other than the below-noticed cells were each seeded in a well plate, in which an RPMI-1640 medium supplemented with penicillin/streptomycin and FBS with a final concentration of 10% was placed. The human prostate cancer cell line VCaP (ATCC) was seeded in a well plate, in which DMEM medium supplemented with penicillin/streptomycin and FBS with a final concentration of 10% was placed. […] Thereafter, using Enspire Multimode Plate Reader (PerkinElmer), the amount of fluorescence at an excitation wavelength of 531 nm and a fluorescence wavelength of 615 nm was measured. Since the amount of fluorescence is in proportion to the concentration of a florescent product resorufin that is converted from resazurin as a redox dye by living cells, the amount of fluorescence was used as an indicator of the number of living cells. The growth inhibition percentage of the test compound in each concentration was calculated according to the following equation. Growth inhibition percentage (%)=(amount of fluorescence in test compound−added well)/(amount of fluorescence in DMSO−added well)×100 […]

HT-29 = assay: Cell growth test (Cell Titer Blue) HT-29; type: cell-based; conditions: Homo sapiens, 72 h, HT-29, Colon cancer, 3 days
Method: as §1, §2

SW-620 = assay: Cell growth test (Cell Titer Blue) SW-620; type: cell-based; conditions: Homo sapiens, 72 h, SW-620, Colon cancer, 3 days
Method: as §1, §2

MKN45 = assay: Cell growth test (Cell Titer Blue) MKN45; type: cell-based; conditions: Homo sapiens, MKN-45, 72 h, MKN45, Stomach cancer, 3 days
Method: as §1, §2

KG-1 = assay: Cell growth test (Cell Titer Blue) KG-1; type: cell-based; conditions: Homo sapiens, 72 h, KG-1, Acute myeloid leukemia, 3 days
Method: as §1, §2

Jurkat = assay: Cell growth test (Cell Titer Blue) Jurkat; type: cell-based; conditions: Homo sapiens, 72 h, Acute lymphoblastic leukemia, 3 days
Method: as §1, §2

K-562 = assay: Cell growth test (Cell Titer Blue) K-562; type: cell-based; conditions: Homo sapiens, K562, 72 h, K-562, Chronic myeloid leukemia, 3 days
Method: as §1, §2

HOP-62 = assay: Cell growth test (Cell Titer Blue) HOP-62; type: cell-based; conditions: Homo sapiens, 72 h, HOP-62, Lung cancer, 3 days
Method: as §1, §2

NCI-H522 = assay: Cell growth test (Cell Titer Blue) NCI-H522; type: cell-based; conditions: Homo sapiens, 72 h, NCI-H522, Lung cancer, 3 days
Method: as §1, §2

NCI-H1299 = assay: Cell growth test (Cell Titer Blue) NCI-H1299; type: cell-based; conditions: Homo sapiens, 72 h, NCI-H1299, Lung cancer, 3 days
Method: as §1, §2

NCI-H460 = assay: Cell growth test (Cell Titer Blue) NCI-H460; type: cell-based; conditions: Homo sapiens, 72 h, NCI-H460, Lung cancer, 3 days
Method: as §1, §2

Raji = assay: Cell growth test (Cell Titer Blue) Raji; type: cell-based; conditions: Homo sapiens, 72 h, Lymphoma (DSMZ), 3 days
Method: as §1, §2

U-937 = assay: Cell growth test (Cell Titer Blue) U-937; type: cell-based; conditions: Homo sapiens, 72 h, U-937, Lymphoma, 3 days
Method: as §1, §2

Daudi = assay: Cell growth test (Cell Titer Blue) Daudi; type: cell-based; conditions: Homo sapiens, 72 h, Lymphoma, 3 days
Method: as §1, §2

SU-DHL-1 = assay: Cell growth test (Cell Titer Blue) SU-DHL-1; type: cell-based; conditions: Homo sapiens, 72 h, SU-DHL-1, Lymphoma, 3 days
Method: as §1, §2

MDA-MB-231 = assay: Cell growth test (Cell Titer Blue) MDA-MB-231; type: cell-based; conditions: Homo sapiens, 72 h, MDA-MB-231, Breast cancer, 3 days
Method: as §1, §2

MDA-MB-453 = assay: Cell growth test (Cell Titer Blue) MDA-MB-453; type: cell-based; conditions: Homo sapiens, 72 h, MDA-MB-453, Breast cancer, 3 days
Method: as §1, §2

MCF-7 = assay: Cell growth test (Cell Titer Blue) MCF-7; type: cell-based; conditions: Homo sapiens, MCF7, 72 h, MCF-7, Breast cancer, 3 days
Method: as §1, §2

A2780 = assay: Cell growth test (Cell Titer Blue) A2780; type: cell-based; conditions: Homo sapiens, 72 h, A2780, Ovarian cancer, 3 days
Method: as §1, §2

BxPC-3 = assay: Cell growth test (Cell Titer Blue) BxPC-3; type: cell-based; conditions: Homo sapiens, 72 h, BxPC-3, Pancreatic cancer, 3 days
Method: as §1, §2

[1] = test system: human prostate cancer cell line VCaP; assay: Cell growth test (Cell Titer Blue) VCaP; type: cell-based; conditions: 72 h, 3 days
Method: as §1, §2

PC-3 = assay: Cell growth test (Cell Titer Blue) PC-3; type: cell-based; conditions: Homo sapiens, 72 h, PC-3, Prostate cancer, 3 days
Method: as §1, §2

[2] = test system: MV4-11 subcutaneously transplanted tumor; assay: Medicinal effect test, MV4-11-subcutaneously-transplanted cancer-bearing mouse models, intravenous administration; type: in vivo; conditions: intravenously, once per day, 25 days, BALB/c nu/nu mice
Method: T/C (%) was calculated from the average tumor volume of each group according to the following equation, and medicinal effects were then evaluated. T/C(%)=[1−(average tumor volume of drug administration group)/(average tumor volume of solvent administration group)]×100%
Moreover, using the above-described mouse models, medicinal effects obtained upon intravenous administration were evaluated.
The human acute myeloid leukemia cell line MV4-11 (ATCC) was suspended in a mixture of RPMI-1640 […] and Matrigel (Corning), and the obtained mixture was then subcutaneously transplanted into 6-week-old female BALB/c nu/nu mice (CLEA Japan, Inc.). After confirming that the average tumor volume exceeded 200 mm^3, a test compound was dissolved in a solvent (a normal saline containing 1 equivalent of hydrochloric acid), and the obtained solution was then intravenously administered to the mice at a daily dose of 10 to 30 mg/kg, once per day, for 25 days. As a negative control, a solvent administration group involving administration of a normal saline was established. The tumor diameter was measured on a daily basis, and the tumor volume was calculated. In the same manner as described above, the tumor volume and T/C (%) were calculated, and medicinal effects were then evaluated.

GI50 (HT-29): 120 nM
GI50 (SW-620): 273 nM
GI50 (MKN45): 2180 nM
GI50 (Jurkat): 129 nM
GI50 (K-562): 17 nM
GI50 (NCI-H522): 155 nM
GI50 (NCI-H1299): 422 nM
GI50 (NCI-H460): 2030 nM
GI50 (Raji): 203 nM
GI50 (U-937): 286 nM
GI50 (Daudi): 165 nM
GI50 (SU-DHL-1): 1260 nM
GI50 (MDA-MB-231): 85 nM
GI50 (MDA-MB-453): 115 nM
GI50 (MCF-7): 689 nM
GI50 (A2780): 582 nM
GI50 (BxPC-3): 2550 nM
GI50 [1]: 361 nM
GI50 (PC-3): 175 nM
Structure (SMILES): CCn1c(=O)cc(C2CCN(C)CC2)c2cc(C(=O)N(C)c3ccc(C)cc3)ccc21 [Example 14, 1-Ethyl-N-methyl-N-(4-methylphenyl)-4-(1-methylpiperidin-4-yl)-2-oxo-1,2-dihydroquinoline-6-carboxamide]
GI50 (T-24): 3040 nM
GI50 (KG-1): 57 nM
GI50 (HOP-62): 143 nM
T/C (%) ([2]; 10 mg/kg): 66%
T/C (%) ([2]; 30 mg/kg): 78%
